Where two headings read alike, the source gives them in different places.
Tests used:
CEM cells = assay: Cell cytotoxicity in CEM cells; type: cell-based; conditions: Table 3a
Epstein-Barr Virus (EBV) = assay: EBV immunofluorescence assay in DAUDI cells (P3HR-1 strain); type: cell-based
Experimental: The immunofluorescence assay, using monoclonal antibodies, for Epstein-Barr Virus (EBV) was performed as follows: DAUDI cells were infected with the P3HR-1 strain of EBV and the test drug was added after adsorption (45 min. at 37° C.) and washing of the cell cultures. These cultures were then incubated for 2 days in complete medium to allow viral gene expression. Following the 48 h incubation period, the number of cells in each sample were counted and smears were made. Monoclonal antibodies to the different early antigen (EA) components and VCA were than added to the cells, incubated and washed. This was followed by the addition of a fluorescein conjugated rabbit anti mouse Ig antibodies. The number of fluorescence positive cells in the smears were counted and the total number of cells in the cultures positive for EA or VCA were then calculated and compared.

HFF cells = assay: Cell viability in HFF cells (neutral red); type: cell-based, human
Experimental: Twenty-four hours prior to assay HFF cells were plated into 96 well plates at a concentration of 2.5×10^4 cells per well. […] The plates were incubated for 7 days in a CO2 incubator at 37° C. At this time the media/drug was aspirated and 200 μL/well of 0.01% neutral red in Dulbecco's Phosphate Buffered Saline (DPBS) was added. This was incubated in the CO2 incubator for 2 h, the dye was aspirated and the cells were washed using a Nunc Plate Washer. After removing the DPBS wash, […] of 50% EtOH: 1% glacial acetic acid in water was added. The plates were rotated for 15 min. and the optical densities were read at 550 nm on a plate reader.

human HBV = assay: HBV DNA replication in HepG2 2.2.15 cells; type: cell-based, hepatitis B virus; conditions: Table 3a; read-out: % Inhibition of human HBV DNA replication in HepG2 2.2.15 cells EC50
Experimental: The compounds were assayed for a) their ability to inhibit DHBV DNA replication in duck hepatocytes, b) their ability to inhibit HBV DNA replication in HepG2 2.2.15 cells, c) the cell cytotoxicity in Vero cells, the cell viability in HFF cells, d) the cell proliferation in HFF cells, and e) the T cell proliferation (purified T cells, PHA stimulated). 3-TC was used as a control. Additional compounds described below in the Preparative Examples section were also tested, and the results are shown in Tables 2-4 below. The reference numbers for the compounds are found in the Preparative Examples.

VZV (Ellen) = assay: CPE inhibition assay VZV (Ellen) in HFF cells; type: cell-based, varicella zoster virus
Experimental: (§1) Cytopathic effect (CPE) inhibition assays for HSV-1, HSV-2, HCMV and VZV were performed as follows: Low passage human foreskin fibroblasts (HFF) cells were seeded into 96 well tissue culture plates 24 h prior to use at a cell concentration of 2.5×10^4 cells per mL in 0.1 mL of minimal essential medium (MEM) supplemented with 10% fetal bovine serum (FBS). The cells were then incubated for 24 h at 37° C. in a CO2 incubator. After incubation, the medium was removed and 100 μL of MEM containing 2% FBS was added to all but the first row. In the first row, 125 μL of experimental drug was added in triplicate wells. Medium alone was added to both cell and virus control […]. After incubation, the medium was removed and 100 μl of MEM containing 2% FBS was added to all but the first row. Medium alone was added to both cell and virus control wells. 125 μl of Experimental drug was added in triplicate wells. The drug in the first row of wells was then diluted serially 1:5 throughout the remaining wells by transferring 25 μL using the Cetus Liquid Handling Machine. After dilution of drugs, 100 μL of the appropriate virus concentration was added to each well, excluding the cell control wells which received 100 μL of MEM. For HSY-1 and HSV-2 assays, the virus concentration utilized was 1000 PFU's per well. For CMV and VZV assays, the virus concentration added was 2500 PFU's per well. The plates were then incubated at 37° C. in a CO2 incubator for 3 days for HSV-1 and HSV-2, 10 days for VZV, or 14 days for CMV. After the incubation period, media was aspirated and the cells stained with a 0.1% crystal violet solution for 30 min. The stain was then removed and the plates were allowed to dry 24 h and then read on a Skatron Plate Reader at 620 nm.

HSV-1 (E-377) = assay: CPE inhibition assay HSV-1 (E-377) in HFF cells; type: cell-based, Herpes simplex virus type-1; conditions: Table 4
Experimental: as §1

Vero cells = assay: Cell cytotoxicity in Vero cells; type: cell-based; conditions: Table 1
Experimental: (§2) The compounds were assayed for a) their ability to inhibit DHBV DNA replication in duck hepatocytes, b) their ability to inhibit HBV DNA replication in HepG2 2.2.15 cells, c) the cell cytotoxicity in Vero cells, the cell viability in HFF cells, d) the cell proliferation in HFF cells, and e) the T cell proliferation (purified T cells, PHA stimulated). 3-TC was used as a control.

HSV-1 (KOS) HSV-TK+ = HSV-1 (KOS) HSV-TK+ antiviral assay; type: cell-based, Herpes simplex virus type-1; conditions: Table 4
Experimental: as §1

whole human PBLs = assay: Cell proliferation, whole human PBLs; type: cell-based; conditions: Table 1
[1] = system: duck hepatitis B virus (DHBV); assay: DHBV DNA replication in primary duck hepatocytes (dot blot hybridization); type: cell-based
Experimental: A series of compounds were synthesized and assayed for activity against duck hepatitis B virus (DHBV). […] Test compounds were added to the hepatocyte cultures on day 2 and maintained in culture with media changed every second day until day 12. Cell were harvested at day 14 and lysed with buffer containing 1% SDS. DNA was isolated from the lysate and dot blot hybridization was performed using a DHBV (32P) DNA probe. […]
as §2

HSV-1 (KOSSB) HSV-TK− = assay: microbe, parasite or virus in culture; type: cell-based, Herpes simplex virus type-1; conditions: Table 4
Experimental: as §1, with “The” for “Cytopathic effect (CPE) inhibition assays for HSV-1, HSV-2, HCMV and VZV were performed as follows: Low passage human foreskin fibroblasts (HFF) cells were seeded into 96 well tissue culture plates 24 h prior to use at a cell concentration of 2.5×10^4 cells per mL in 0.1 mL of minimal essential medium (MEM) supplemented with 10% fetal bovine serum (FBS). The”

HSV-2 (MS) = assay: CPE inhibition assay HSV-2 (MS) in HFF cells; type: cell-based, Herpes simplex virus type-2; conditions: Table 4
Experimental: as §1

HCMV (AD169) = assay: CPE inhibition assay HCMV (AD169) in HFF cells; type: cell-based, human cytomegalovirus; conditions: Table 4
Experimental: as §1

Row | Molecule | CC50 (CEM cells) [µM] | EBV EC50 (Epstein-Barr Virus (EBV); Table 3a) [µg/mL] | EBV EC90 (Epstein-Barr Virus (EBV); Table 3a, in parentheses) [µg/mL] | CC50 (HFF cells; Table 3a, read-out: Cell viability HFF cells CC50) [µM] | EC50 (human HBV) [nM] | VZV (Ellen) EC50 (VZV (Ellen); Table 3a) [µg/mL] | HSV-1 (E-377) EC50, μg/ml (HSV-1 (E-377)) [μg/ml] | CC50 (Vero cells) [µM] | HSV-1 (KOS) HSV-TK+ EC50 (HSV-1 (KOS) HSV-TK+) [µg/mL] | IC50 (whole human PBLs) [µM] | EBV EC50 (Epstein-Barr Virus (EBV); Table 4) [µg/mL] | % Inhibition of DHBV DNA replication in duck hepatocytes @10 μg/ml [1] [%] | HSV-1 (KOSSB) HSV-TK− EC50 (HSV-1 (KOSSB) HSV-TK−) [µg/mL] | CC50 (HFF cells; Table 1, read-out: Cell viability, HFF cells, CC50 μM) [µM] | HSV-2 (MS) EC50 (HSV-2 (MS)) [µg/mL] | HCMV (AD-169) EC50 (HCMV (AD169)) [µg/mL] | VZV (Ellen) EC50 (VZV (Ellen); Table 4) [µg/mL]
1 | CCO[C@@H]1C(Cl)C(=O)NC(=O)N1[C@H]1C[C@H](F)[C@@H](CO)O1 (single isomer, unassigned; (+)) [RB-2] | > 200 | 0.15 to 0.3 | 9.8 | > 330 | 2800 | 0.3 |  |  |  |  |  |  |  |  |  |  | 
2 | (5R,6R)5-fluoro-O^6-5′-cyclo-5,6-dihydro-3′-azido-3′-deoxythymidine [Compound R-14] |  |  |  |  |  |  | >100 | 100 to 200 | >25 | > 350 | <0.08 | 81.0 | >50 | > 350 | >100 | >100 | >100

Reference: patent US7589077B2, “Antiviral nucleosides” (priority 2001, dated 2009)
